{
  "source": "patent US12492199B2",
  "about": "“Pyridopyrimidines as histamine H4-receptor inhibitors” (FAES FARMA, S.A., priority 2018, dated 2025)",
  "key": {"human H4 receptor": {"biological_target": "human H4 receptor (Homo sapiens (Human), UniProt Q9H3N8)", "sequence (Q9H3N8 whole entry)": "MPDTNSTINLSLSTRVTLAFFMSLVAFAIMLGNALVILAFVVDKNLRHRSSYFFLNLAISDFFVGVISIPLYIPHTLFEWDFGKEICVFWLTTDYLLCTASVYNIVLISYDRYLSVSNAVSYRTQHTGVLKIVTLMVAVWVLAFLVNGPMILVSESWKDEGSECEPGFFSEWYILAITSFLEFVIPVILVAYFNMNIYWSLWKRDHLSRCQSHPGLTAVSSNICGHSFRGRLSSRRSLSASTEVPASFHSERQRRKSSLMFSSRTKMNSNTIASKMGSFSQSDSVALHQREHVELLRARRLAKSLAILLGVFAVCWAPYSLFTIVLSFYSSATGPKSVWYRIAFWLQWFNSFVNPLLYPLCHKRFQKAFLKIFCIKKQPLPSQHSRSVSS", "test": "H4 Binding assay ([3H]histamine competition, membranes from CHO-K1 cells transfected with human H4 receptor)", "description": "Affinity for histamine H4-receptor was determined by H4 Binding assay:\n• Membranes from CHO-K1 cells transfected with human H4 receptor and microplates of 96-well format were used. • For competition studies cell membranes were homogenated in Tris-HCl 50 mM, EDTA 5 mM, pH 7.4 and added to the microplate at the concentration of approximately 15 μg/well. […] Non specific binding was defined using 10 μM unlabeled histamine and the total incubation volume was 275 μl per well. • Incubations were performed under gentle agitation at 25° C. for 60 min and concluding with a rapid vacuum filtration using pre-soaked filters (0.5% polyethylenimine). After ten rapid washes with cold wash buffer (50 mM Tris-HCl buffer) the filter plates were dried at room temperature for 30 min. • Finally, scintillation liquid (Microscint 20) was added to the whole microplate in order to measure the radioactivity reattained on the filters using a specific scintillation counter (Top Count—NXT). […] H1 Binding Assay Materials"}, "human H1 receptor": {"biological_target": "human H1 receptor (Homo sapiens (Human), UniProt P35367)", "sequence (P35367 whole entry)": "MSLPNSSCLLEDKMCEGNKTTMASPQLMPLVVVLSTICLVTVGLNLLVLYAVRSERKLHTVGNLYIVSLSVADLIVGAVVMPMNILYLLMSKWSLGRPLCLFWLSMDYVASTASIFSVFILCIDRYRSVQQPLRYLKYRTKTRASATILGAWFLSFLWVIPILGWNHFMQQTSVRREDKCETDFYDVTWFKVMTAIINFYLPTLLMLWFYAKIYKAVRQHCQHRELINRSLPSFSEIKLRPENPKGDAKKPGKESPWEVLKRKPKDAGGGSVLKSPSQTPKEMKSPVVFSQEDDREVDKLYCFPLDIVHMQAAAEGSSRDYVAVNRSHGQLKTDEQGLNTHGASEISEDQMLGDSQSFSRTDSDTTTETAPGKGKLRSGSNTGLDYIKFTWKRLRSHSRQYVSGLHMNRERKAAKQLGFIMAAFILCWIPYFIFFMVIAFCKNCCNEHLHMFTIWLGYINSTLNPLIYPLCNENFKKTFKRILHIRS", "test": "H1 Binding assay ([3H]pyrilamine competition, membranes from CHO-K1 cells transfected with human H1 receptor)", "details": "affinity for human histamine H1 receptor, class symbols; — not defined in key; read-out: ACTIVITY CLASS hH1R (Ki)", "description": "Cetirizine and pyrilamine were supplied by Sigma-Aldrich. Bilastine was synthetized at FAES FARMA facilities (Lamiako-Leioa, Spain), chemical reagents such as Na2HPO4, KH2PO4 or polyvinylpyrrolidone as well as multiscreen microplates (MSFBN6B50) were purchased from Merck Millipore, scintillation liquid (Microscint 20), human H1 membranes (ES-390-M400UA) and ^3H-pirilamina (NET 594) were provided by PerkinElmer.\nAffinity for histamine H1-receptor was determined by H1 Binding assay: • Membranes form CHO-K1 cells transfected with human H1 receptor and microplates of 96-well format were used. • For competition studies cell membranes were homogenated in 50 mM phosphate buffer (Na2HPO4 and KH2PO4 mixed to pH 7.4 at 25° C.) and added to the microplate at the concentration of approximately 5 μg/well. […] Non specific binding was defined using 10 μM unlabeled pyrilamine and the total incubation volume was 275 μl per well. • Incubations were performed until gentle agitation at 25° C. for 60 min and concluding with a rapid vacuum filtration using pre-soaked filters (5% polyvinylpyrrolidone). After ten rapid washes with cold wash buffer (50 mM phosphate buffer) the filter plates were dried at room temperature for 30 min. • Finally, scintillation liquid (Microscint 20) was added to the whole microplate in order to measure the radioactivity retained on the filters using an specific scintillation counter (Top Count—NXT). Curve analysis and values of IC50 were determined using Grap Pad Prism program (GraphPad Software, San Diego, USA). • Test compounds were initially evaluated at one concentration (1 μM) and thereafter if significant displacement was observed (>40%) a concentration-response curve was conducted. Each test concentration was measured in triplicate. • As reference compounds pyrilamine, cetirizine and Bilastine were used."}, "[1]": {"details": "affinity for human histamine H4 receptor, class symbols, read-out: ACTIVITY CLASS hH4R (Ki)"}},
  "note": "Like-named read-outs stand apart in the source and are kept apart here.",
  "data": [
    {"smiles": "CC(C)c1cc2c(NCCS(=O)(=O)Nc3ccccc3)nc(N3CCN(C)CC3)nc2cn1", "note": "[Example 54, 2-((6-isopropyl-2-(4-methylpiperazin-1-yl)pyrido[3,4-d]pyrimidin-4-yl)amino)-N-phenylethane-1-sulfonamide]", "values": [
      {"measurement": "Ki", "setting": "human H4 receptor; [1]", "result": "< 0.1", "unit": "µM"},
      {"measurement": "Ki", "setting": "human H1 receptor", "result": "< 1", "unit": "µM"}
    ]},
    {"smiles": "COc1ccccc1NS(=O)(=O)CCNc1nc(N2CCN(C)CC2)nc2cnc(Cl)cc12", "note": "[Example 74, 2-((6-chloro-2-(4-methylpiperazin-1-yl)pyrido[3,4-d]pyrimidin-4-yl)amino)-N-(2-methoxyphenyl)ethane-1-sulfonamide]", "values": [
      {"measurement": "Ki", "setting": "human H4 receptor; [1]", "result": "< 0.1", "unit": "µM"},
      {"measurement": "Ki", "setting": "human H1 receptor", "result": "< 1", "unit": "µM"}
    ]},
    {"smiles": "CN1CCN(c2nc(NCc3cccs3)c3cc(Cl)ncc3n2)CC1", "note": "[Example 3, 6-chloro-2-(4-methylpiperazin-1-yl)-N-(thiophen-2-ylmethyl)pyrido[3,4-d]pyrimidin-4-amine]", "values": [
      {"measurement": "Ki", "setting": "human H4 receptor; [1]", "result": "< 0.1", "unit": "µM"},
      {"measurement": "IC50", "setting": "human H4 receptor; histamine H4 receptor binding", "result": 0.00174, "unit": "µM"},
      {"measurement": "inhibition at 1 µM", "setting": "human H4 receptor; histamine H4 receptor binding, compounds initially evaluated at 1 μM", "result": 94, "unit": "%"},
      {"measurement": "Ki", "setting": "human H4 receptor; histamine H4 receptor, comparative compounds, read-out: Ki", "result": 0.00075, "unit": "µM"},
      {"measurement": "Ki", "setting": "human H1 receptor", "result": "< 1", "unit": "µM"}
    ]},
    {"smiles": "Cc1cc2c(NCc3cccs3)nc(N3CCNCC3)nc2cn1", "note": "[Example 60, 6-methyl-2-(piperazin-1-yl)-N-(thiophen-2-ylmethyl)pyrido[3,4-d]pyrimidin-4-amine]", "values": [
      {"measurement": "Ki", "setting": "human H4 receptor; [1]", "result": "< 1", "unit": "µM"},
      {"measurement": "Ki", "setting": "human H1 receptor", "result": "< 1", "unit": "µM"}
    ]},
    {"smiles": "Cc1ccc(CNc2nc(N3CCN(C)CC3)nc3cnc(Cl)cc23)s1", "note": "[Example 69, 6-chloro-2-(4-methylpiperazin-1-yl)-N-((5-methylthiophen-2-yl)methyl)pyrido[3,4-d]pyrimidin-4-amine]", "values": [
      {"measurement": "Ki", "setting": "human H4 receptor; [1]", "result": "< 1", "unit": "µM"},
      {"measurement": "Ki", "setting": "human H1 receptor", "result": "< 1", "unit": "µM"}
    ]},
    {"smiles": "CN1CCN(c2nc(NCCS(=O)(=O)N(C)c3ccccc3)c3cc(Cl)ncc3n2)CC1", "note": "[Example 17, 2-((6-chloro-2-(4-methylpiperazin-1-yl)pyrido[3,4-d]pyrimidin-4-yl)amino)-N-methyl-N-phenylethane-1-sulfonamide]", "values": [
      {"measurement": "Ki", "setting": "human H4 receptor; [1]", "result": "< 0.1", "unit": "µM"},
      {"measurement": "Ki", "setting": "human H1 receptor", "result": "< 1", "unit": "µM"}
    ]},
    {"smiles": "CN1CCN(c2nc(NCCS(=O)(=O)c3ccccc3)c3cc(Cl)ncc3n2)CC1", "note": "[Example 93, 6-chloro-2-(4-methylpiperazin-1-yl)-N-(2-(phenylsulfonyl)ethyl)pyrido[3,4-d]pyrimidin-4-amine]", "values": [
      {"measurement": "Ki", "setting": "human H4 receptor; [1]", "result": "< 0.1", "unit": "µM"},
      {"measurement": "Ki", "setting": "human H1 receptor", "result": "< 1", "unit": "µM"}
    ]},
    {"smiles": "CN1CCN(c2nc(NCc3ccco3)c3cc(Cl)ncc3n2)CC1", "note": "[Example 4, 6-chloro-N-(furan-2-ylmethyl)-2-(4-methylpiperazin-1-yl)pyrido[3,4-d]pyrimidin-4-amine]", "values": [
      {"measurement": "Ki", "setting": "human H4 receptor; [1]", "result": "< 0.1", "unit": "µM"},
      {"measurement": "Ki", "setting": "human H1 receptor", "result": "< 1", "unit": "µM"}
    ]},
    {"smiles": "CN1CCN(c2nc(NCCS(=O)(=O)Nc3ccccc3Cl)c3cc(Cl)ncc3n2)CC1", "note": "[Example 72, 2-((6-chloro-2-(4-methylpiperazin-1-yl)pyrido[3,4-d]pyrimidin-4-yl)amino)-N-(2-chlorophenyl)ethane-1-sulfonamide]", "values": [
      {"measurement": "Ki", "setting": "human H4 receptor; [1]", "result": "< 0.1", "unit": "µM"},
      {"measurement": "Ki", "setting": "human H1 receptor", "result": "< 1", "unit": "µM"}
    ]},
    {"smiles": "CCCc1cc2c(NCc3cccs3)nc(N3CCN(C)CC3)nc2cn1", "note": "[Example 49, 2-(4-methylpiperazin-1-yl)-6-propyl-N-(thiophen-2-ylmethyl)pyrido[3,4-d]pyrimidin-4-amine]", "values": [
      {"measurement": "Ki", "setting": "human H4 receptor; [1]", "result": "< 1", "unit": "µM"},
      {"measurement": "Ki", "setting": "human H1 receptor", "result": "< 1", "unit": "µM"}
    ]},
    {"smiles": "CN1CCN(c2nc(NCC[S+]([O-])Cc3ccccc3)c3cc(Cl)ncc3n2)CC1", "note": "(stereo not drawn) [Example 95, N-(2-(benzylsulfinyl)ethyl)-6-chloro-2-(4-methylpiperazin-1-yl)pyrido[3,4-d]pyrimidin-4-amine]", "values": [
      {"measurement": "Ki", "setting": "human H4 receptor; [1]", "result": "< 0.1", "unit": "µM"},
      {"measurement": "Ki", "setting": "human H1 receptor", "result": "< 1", "unit": "µM"}
    ]},
    {"smiles": "Clc1cc2c(NCc3cccs3)nc(N3CCNCC3)nc2cn1", "note": "[Example 24, 6-chloro-2-(piperazin-1-yl)-N-(thiophen-2-ylmethyl)pyrido[3,4-d]pyrimidin-4-amine]", "values": [
      {"measurement": "Ki", "setting": "human H4 receptor; [1]", "result": "< 0.1", "unit": "µM"},
      {"measurement": "Ki", "setting": "human H1 receptor", "result": "< 1", "unit": "µM"}
    ]},
    {"smiles": "Cc1ccsc1CNc1nc(N2CCN(C)CC2)nc2cnc(Cl)cc12", "note": "[Example 68, 6-chloro-2-(4-methylpiperazin-1-yl)-N-((3-methylthiophen-2-yl)methyl)pyrido[3,4-d]pyrimidin-4-amine]", "values": [
      {"measurement": "Ki", "setting": "human H4 receptor; [1]", "result": "< 1", "unit": "µM"},
      {"measurement": "Ki", "setting": "human H1 receptor", "result": "< 1", "unit": "µM"}
    ]},
    {"smiles": "CN1CCN(c2nc(NCCS(=O)(=O)Cc3ccccc3)c3cc(Cl)ncc3n2)CC1", "note": "[Example 94, N-(2-(benzylsulfonyl)ethyl)-6-chloro-2-(4-methylpiperazin-1-yl)pyrido[3,4-d]pyrimidin-4-amine]", "values": [
      {"measurement": "Ki", "setting": "human H4 receptor; [1]", "result": "< 0.1", "unit": "µM"},
      {"measurement": "Ki", "setting": "human H1 receptor", "result": "< 1", "unit": "µM"}
    ]},
    {"smiles": "Clc1cc2c(NCc3ccco3)nc(N3CCNCC3)nc2cn1", "note": "[Example 25, 6-chloro-N-(furan-2-ylmethyl)-2-(piperazin-1-yl)pyrido[3,4-d]pyrimidin-4-amine]", "values": [
      {"measurement": "Ki", "setting": "human H4 receptor; [1]", "result": "< 1", "unit": "µM"},
      {"measurement": "Ki", "setting": "human H1 receptor", "result": "< 1", "unit": "µM"}
    ]},
    {"smiles": "CN1CCN(c2nc(NCCS(=O)(=O)NCc3ccccc3)c3cc(Cl)ncc3n2)CC1", "note": "[Example 15, N-benzyl-2-((6-chloro-2-(4-methylpiperazin-1-yl)pyrido[3,4-d]pyrimidin-4-yl)amino)ethane-1-sulfonamide]", "values": [
      {"measurement": "Ki", "setting": "human H4 receptor; [1]", "result": "< 0.1", "unit": "µM"}
    ]},
    {"smiles": "CC(C)c1cc2c(NCc3ccco3)nc(N3CCN(C)CC3)nc2cn1", "note": "[Example 51, N-(furan-2-ylmethyl)-6-isopropyl-2-(4-methylpiperazin-1-yl)pyrido[3,4-d]pyrimidin-4-amine]", "values": [
      {"measurement": "Ki", "setting": "human H4 receptor; [1]", "result": "< 1", "unit": "µM"}
    ]},
    {"smiles": "Cc1cc(NS(=O)(=O)CCNc2nc(N3CCN(C)CC3)nc3cnc(Cl)cc23)n(C)n1", "note": "[Example 90, 2-((6-chloro-2-(4-methylpiperazin-1-yl)pyrido[3,4-d]pyrimidin-4-yl)amino)-N-(1,3-dimethyl-1H-pyrazol-5-yl)ethane-1-sulfonamide]", "values": [
      {"measurement": "Ki", "setting": "human H4 receptor; [1]", "result": "< 1", "unit": "µM"}
    ]},
    {"smiles": "CN1CCN(c2nc(NCc3ccsc3)c3cc(Cl)ncc3n2)CC1", "note": "[Example 5, 6-chloro-2-(4-methylpiperazin-1-yl)-N-(thiophen-3-ylmethyl)pyrido[3,4-d]pyrimidin-4-amine]", "values": [
      {"measurement": "Ki", "setting": "human H4 receptor; [1]", "result": "< 1", "unit": "µM"},
      {"measurement": "Ki", "setting": "human H1 receptor", "result": "< 1", "unit": "µM"}
    ]},
    {"smiles": "CN1CCN(c2nc(NCCc3nccs3)c3cc(Cl)ncc3n2)CC1", "note": "[Example 70, 6-chloro-2-(4-methylpiperazin-1-yl)-N-(2-(thiazol-2-yl)ethyl)pyrido[3,4-d]pyrimidin-4-amine]", "values": [
      {"measurement": "Ki", "setting": "human H4 receptor; [1]", "result": "< 1", "unit": "µM"}
    ]}
  ]
}
